The results in this text go back to US20070299072A1, “KV1.5 POTASSIUM CHANNEL INHIBITORS” (Wyeth, priority 2006, published 2007).

The target in the test is T1, Kv1.5 (Homo sapiens, UniProt P22460).
T1 construct: expressed in transfected cells; host or cells: HEK or LTK- cells
T1 sequence (P22460 whole entry): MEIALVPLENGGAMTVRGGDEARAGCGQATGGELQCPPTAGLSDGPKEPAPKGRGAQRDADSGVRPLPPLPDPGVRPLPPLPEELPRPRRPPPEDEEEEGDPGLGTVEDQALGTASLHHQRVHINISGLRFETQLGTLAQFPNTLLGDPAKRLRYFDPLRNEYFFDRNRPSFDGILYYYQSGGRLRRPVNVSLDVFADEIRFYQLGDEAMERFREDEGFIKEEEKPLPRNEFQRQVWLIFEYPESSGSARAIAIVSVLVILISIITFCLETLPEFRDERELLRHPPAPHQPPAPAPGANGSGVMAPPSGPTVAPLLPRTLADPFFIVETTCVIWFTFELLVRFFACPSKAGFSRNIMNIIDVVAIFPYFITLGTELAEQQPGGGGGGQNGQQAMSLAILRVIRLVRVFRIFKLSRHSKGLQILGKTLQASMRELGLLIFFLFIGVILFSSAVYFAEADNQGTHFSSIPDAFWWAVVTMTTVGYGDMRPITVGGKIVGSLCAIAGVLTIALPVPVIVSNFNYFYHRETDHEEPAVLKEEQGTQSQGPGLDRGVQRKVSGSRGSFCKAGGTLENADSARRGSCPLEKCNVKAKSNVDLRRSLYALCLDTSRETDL
As to the kind of experiment: Kv1.5 Patch Clamp EP (whole cell patch clamp; single point at 1 μM and IC50). Format: cell-based. The following applies: single point at 1.0 μM, Kv1.5 stably over expressed in HEK or LTK- cells. How it is done: The external solution is standard Tyrodes solution. […] Inhibition was measured at the end of the 1 second pulses and expressed relative to controls. Initial Kv1.5 inhibition is estimated by single point determinations done at 1 μM.
`COc1ccc(CCN2C(=O)C3(CCN(C(=O)C(C)(C)NC(=O)OC(C)(C)C)CC3)N(C)C2c2ccc(C3CC3)cc2)cc1` (stereo not drawn) [Compound 70, (2-{2-(4-cyclopropylphenyl)-3-[2-(4-methoxyphenyl)ethyl]-1-methyl-4-oxo-1,3,8-triaza-spiro[4.5]dec-8-yl}-1,1-dimethyl-2-oxo-ethyl)-carbamic acid tert-butyl ester] yielded an inhibition at 1 µM of 42%. The result for `COc1ccc(CCN2C(=O)C3(CCN(C(=O)NC(C)C)CC3)N(C)C2c2ccc(OC)cc2)cc1` (stereo not drawn) [Compound 17, 2-(4-Methoxyphenyl)-3-[2-(4-methoxyphenyl)ethyl]-1-methyl-4-oxo-1,3,8-triaza-spiro[4.5]decane-8-carboxylic acid isopropylamide] reads 31%. Compound `COc1ccc(CCN2C(=O)C3(CCN(C(=N)N)CC3)N(C)C2c2ccc(C3CC3)cc2)cc1` (stereo not drawn) [Compound 84, 2-(4-cyclopropylphenyl)-3-[2-(4-methoxyphenyl)ethyl]-1-methyl-4-oxo-1,3,8-triazaspiro[4.5]decane-8-carboximidamide] displayed an inhibition at 1 µM of 7%. Compound `COc1ccc(CCN2C(=O)C3(CCNCC3)NC2c2ccc(C(C)(C)C)cc2)cc1` (stereo not drawn) [Compound 76, 2-(4-tert-butylphenyl)-3-[2-(4-methoxyphenyl)ethyl]-1,3,8-triazaspiro[4.5]decan-4-one] had an inhibition at 1 µM of 5%. Turning to `COc1ccc(CCN2C(=O)C3(CCN(C(=O)C(C)(C)N)CC3)N(C)C2c2ccc(C3CC3)cc2)cc1` (stereo not drawn) [Compound 59, 8-(2-Amino-2-methylpropionyl)-2-(4-cyclopropylphenyl)-3-[2-(4-methoxyphenyl)ethyl]-1-methyl-1,3,8-triaza-spiro[4.5]decan-4-one], the inhibition at 1 µM turned out to be 11%. On to `CN1C(c2ccc(C3CC3)cc2)N(CCc2ccc(OC(F)(F)F)cc2)C(=O)C12CCNCC2` (stereo not drawn) [Compound 78, 2-(4-cyclopropylphenyl)-1-methyl-3-{2-[4-(trifluoromethoxy)phenyl]ethyl}-1,3,8-triazaspiro[4.5]decan-4-one], for which the inhibition at 1 µM was determined as 16%. The result for `COc1ccc(C2NC3(CCN(C(=O)OC(C)(C)C)CC3)C(=O)N2CCCc2ccccc2)cc1` (stereo not drawn) [Compound 87, tert-butyl 2-(4-methoxyphenyl)-4-oxo-3-(3-phenylpropyl)-1,3,8-triazaspiro[4.5]decane-8-carboxylate] reads 5%; that for `COc1ccc(CCN2C(=O)C3(CCNCC3)NC2c2ccc(C3CC3)cc2)cc1` (stereo not drawn) [Compound 93, 2-(4-cyclopropylphenyl)-3-[2-(4-methoxyphenyl)ethyl]-1,3,8-triazaspiro[4.5]decan-4-one], 21%.

As to `COc1ccc(CCN2C(=O)C3(CCN(C(=O)OC(C)(C)C)CC3)N(C)C2c2ccc(C(C)(C)C)cc2)cc1` (stereo not drawn) [Compound 38, tert-Butyl 2-(4-tert-butylphenyl)-3-[2-(4-methoxyphenyl)ethyl]-1-methyl-4-oxo-1,3,8-triazaspiro[4.5]decane-8-carboxylate], 1 µM produced 28% inhibition. The result for `COc1ccc(CCN2C(=O)C3(CCN(C(=O)OC(C)(C)C)CC3)N(C)C2Cc2ccc(C(C)(C)C)cc2)cc1` (stereo not drawn) [Compound 97, tert-butyl 2-(4-tert-butylbenzyl)-3-[2-(4-methoxyphenyl)ethyl]-1-methyl-4-oxo-1,3,8-triazaspiro[4.5]decane-8-carboxylate] reads 16%; that for `COc1ccc(CCN2C(=O)C3(CCN(C(=O)N(C)C)CC3)N(C)C2c2ccc(C3CC3)cc2)cc1` (stereo not drawn) [Compound 18, 2-(4-Cyclopropylphenyl)-3-[2-(4-methoxyphenyl)ethyl]-1-methyl-4-oxo-1,3,8-triaza-spiro[4.5]decane-8-carboxylic acid dimethylamide], 10%; that for `CN1C(c2ccc(C3CC3)cc2)N(CCCc2ccccc2)C(=O)C12CCNCC2` (stereo not drawn) [Compound 43, 2-(4-Cyclopropylphenyl)-1-methyl-3-(3-phenylpropyl) —1,3,8-triazaspiro[4.5]-decan-4-one], 23%. The result for `COc1ccc(CCN2C(=O)C3(CCNCC3)N(C)C2c2ccc(C(C)(C)C)cc2)cc1` (stereo not drawn) [Compound 2, 2-(4-tert-Butylphenyl)-3-[2-(4-methoxyphenyl)ethyl]-1-methyl-1,3,8-triaza-spiro[4.5]decan-4-one] reads 6%; that for `COc1ccc(CCN2C(=O)C3(CCN(CC(N)=O)CC3)N(C)C2c2ccc(OC(F)F)cc2)cc1` (stereo not drawn) [Compound 57, 2-{2-(4-Difluoromethoxyphenyl)-3-[2-(4-methoxyphenyl)ethyl]-1-methyl-4-oxo-1,3,8-triaza-spiro[4.5]dec-8-yl}acetamide], 25%; that for `COc1ccc(CCN2C(=O)C3(CCN(C(=O)OC(C)(C)C)CC3)NC2c2ccc(C3CC3)cc2)cc1` (stereo not drawn) [Compound 64, 2-(4-cyclopropylphenyl)-3-[2-(4-methoxyphenyl)ethyl]-4-oxo-1,3,8-triaza-spiro[4.5]decane-8-carboxylic acid tert-butyl ester], 36%. The result for `CCS(=O)(=O)N1CCC2(CC1)NC(c1ccc(C(C)(C)C)cc1)N(CCc1ccc(OC)cc1)C2=O` (stereo not drawn) [Compound 94, 2-(4-tert-butylphenyl)-8-(ethylsulfonyl)-3-[2-(4-methoxyphenyl)ethyl]-1,3,8-triazaspiro[4.5]decan-4-one] reads 12%.

Compound `CN1C(c2ccc(C3CC3)cc2)N(CCc2ccc(OC(F)(F)F)cc2)C(=O)C12CCN(C(=O)OC(C)(C)C)CC2` (stereo not drawn) [Compound 77, tert-butyl 2-(4-cyclopropylphenyl)-1-methyl-4-oxo-3-{2-[4-(trifluoromethoxy)phenyl]ethyl}-1,3,8-triazaspiro[4.5]decane-8-carboxylate] returned an inhibition at 1 µM of 7%.

Regarding `COc1ccc(CCN2C(=O)C3(CCN(C(=O)OC(C)(C)C)CC3)NC2c2ccc(OC)cc2)cc1` (stereo not drawn) [Compound 73, tert-butyl 2-(4-methoxyphenyl)-3-[2-(4-methoxyphenyl)ethyl]-4-oxo-1,3,8-triazaspiro[4.5]decane-8-carboxylate], testing at 1 µM gave an inhibition of 11%. The result for `COc1ccc(CCN2C(=O)C3(CCN(CC4CC4)CC3)N(C)C2c2ccc(C3CC3)cc2)cc1` (stereo not drawn) [Compound 56, 8-Cyclopropylmethyl-2-(4-cyclopropylphenyl)-3-[2-(4-methoxyphenyl)ethyl]-1-methyl-1,3,8-triaza-spiro[4.5]decan-4-one] reads 12%; that for `COc1ccc(CCN2C(=O)C3(CCN(C(N)=O)CC3)N(C)C2c2ccc(OC)cc2)cc1` (stereo not drawn) [Compound 72, 2-(4-methoxyphenyl)-3-[2-(4-methoxyphenyl)ethyl]-1-methyl-4-oxo-1,3,8-triazaspiro[4.5]decane-8-carboxamide], 16%; that for `COc1ccc(CCN2C(=O)C3(CCN(C(=O)[C@H]4CCCN4)CC3)N(C)C2c2ccc(C3CC3)cc2)cc1` (stereo partly drawn) [Compound 90, 2-(4-cyclopropylphenyl)-3-[2-(4-methoxyphenyl)ethyl]-1-methyl-8-D-prolyl-1,3,8-triazaspiro[4.5]decan-4-one], 8%. To `COc1ccc(CCN2C(=O)C3(CCNCC3)N(C)C2c2ccc(OC(F)F)cc2)cc1` (stereo not drawn) [Compound 3, 2-(4-Difluoromethoxyphenyl)-3-[2-(4-methoxyphenyl)ethyl]-1-methyl-1,3,8-triaza-spiro[4.5]decan-4-one] belongs 6%; to `CN=C(N)N1CCC2(CC1)C(=O)N(CCc1ccc(OC)cc1)C(c1ccc(C3CC3)cc1)N2C` (stereo not drawn) [Compound 86, 2-(4-cyclopropylphenyl)-3-[2-(4-methoxyphenyl)ethyl]-N′,1-dimethyl-4-oxo-1,3,8-triazaspiro[4.5]decane-8-carboximidamide], 4%; to `COc1ccc(CCN2C(=O)C3(CCN(C(=O)C4CC4)CC3)NC2c2ccc(C(C)(C)C)cc2)cc1` (stereo not drawn) [Compound 88, 2-(4-tert-butylphenyl)-8-(cyclopropylcarbonyl)-3-[2-(4-methoxyphenyl)ethyl]-1,3,8-triazaspiro[4.5]decan-4-one], 13%.

The compound `COc1ccc(CCN2C(=O)C3(CCN(S(C)(=O)=O)CC3)NC2c2ccc(C3CC3)cc2)cc1` (stereo not drawn) [Compound 79, 2-(4-cyclopropylphenyl)-3-[2-(4-methoxyphenyl)ethyl]-8-(methylsulfonyl)-1,3,8-triazaspiro[4.5]decan-4-one] yielded an inhibition at 1 µM of 8%. To `COc1ccc(CCN2C(=O)C3(CCN(C(N)=O)CC3)NC2c2ccc(C3CC3)cc2)cc1` (stereo not drawn) [Compound 74, 2-(4-cyclopropylphenyl)-3-[2-(4-methoxyphenyl)ethyl]-4-oxo-1,3,8-triazaspiro[4.5]decane-8-carboxamide] belongs 5%; to `COc1ccc(CCN2C(=O)C3(CCNCC3)N(C)C2Cc2ccc(C(C)(C)C)cc2)cc1` (stereo not drawn) [Compound 69, 2-(4-tert-butylbenzyl)-3-[2-(4-methoxyphenyl)ethyl]-1-methyl-1,3,8-triazaspiro[4.5]decan-4-one], 5%. To `COc1ccc(CCN2C(=O)C3(CCN(C(=O)OC(C)(C)C)CC3)N(C)C2c2ccc(OC(F)F)cc2)cc1` (stereo not drawn) [Compound 40, tert-Butyl 2-(4-difluoromethoxyphenyl)-3-[2-(4-methoxyphenyl)ethyl]-1-methyl-4-oxo-1,3,8-triazaspiro[4.5]decane-8-carboxylate] belongs 22%; to `COc1ccc(CCN2C(=O)C3(CCNCC3)N(C)C2c2ccc(C3CC3)cc2)cc1` (stereo not drawn) [Compound 1, 2-(4-Cyclopropylphenyl)-3-[2-(4-methoxyphenyl)ethyl]-1-methyl-1,3,8-triaza-spiro[4.5]decan-4-one], 2%; to `COC(=O)N1CCC2(CC1)C(=O)N(CCc1ccc(OC)cc1)C(c1ccc(C3CC3)cc1)N2C` (stereo not drawn) [Compound 41, Methyl 2-(4-cyclopropylphenyl)-3-[2-(4-methoxyphenyl)ethyl]-1-methyl-4-oxo-1,3,8-triazaspiro[4.5]decane-8-carboxylate], 17%.

The inhibition is the share of the control response that was lost under treatment.
